Structures are written as SMILES. “Also recorded” adds a separate entry of the source.

The values that follow come from patent publication US11278682B2, “Device and method for aerosolized delivery of substance to a natural orifice of the body” (SIPNOSE LTD., priority 2014, dated 2022).

The subject of series [1] is Pentylenetetrazol (PTZ)-induced epileptic seizures in rats. In words: Pentylenetetrazol (PTZ)-induced epileptic seizures, Racine grading, Midazolam IV vs SipNose. It is filed as in vivo, rat. As to the method:
In this example, epileptic seizures were induced in rats by administration of 47.5-50 mg/kg of Pentylenetetrazol (PTZ) for 5 min before the start of treatment with Midazolam. The Midazolam was administered either via IV or using a SipNose device, via the nasal passages. There were two dosing levels, 0.6 mg/kg (FIG. 78) and 6 mg/kg (FIG. 79).
In all cases, the Racine grading standard was used to determine the severity of the seizures. PZT was at t=−5 min, the start of treatment was at time t=0.
Treatment consisted of saline (control, diamonds), Midazolam administered by IV (triangles) or Midazolam administered nasally by a SipNose device (squares).

For series [2] the test system is unchanged. In words: Brain concentration of Midazolam vs convulsion score in PTZ-induced seizures. Particulars: 60 minutes after administration. The format is in vivo, rat. As to the method: Epileptic seizures were induced in rats by administration of Pentylenetetrazol (PTZ) and the severity of the seizures was measured 60 minutes after administration of Mizadolam. Doses of Mizadolam varied from zero to 6 mg/kg with SipNose nasal delivery device and with an I/V administration. Brain concentrations of Midazolam were measured and a correlation between brain concentration and convulsions score is shown in FIG. 81. Brain concentrations varied from zero to 130 ng/gr brain tissue. Black squares represent the I/V administrated animals and black dots represent the SipNose administrated animals.

For series [3], the system named is patient suffering from epileptic seizures (SE). Briefly: Anti-epileptic treatment of status epilepticus with Midazolam, EEG recordings (case study). The format is in vivo, human. Particulars: 2 mg Midazolam via SipNose, nasal. The method, then: Case study of a patient, suffering from epileptic seizures (SE) was treated with a dose of 2 mg Midazolam with sipNose delivery device to deliver Midazolam via the nasal cavity.
Administration of Midazolam was done by administrating of […] of Midazolam to each nostril in a carrier volume of 1 ml. EEG recordings were measured before (FIGS. 82A and 82B) and 3 minutes following to the nasal administration of the drug with SipNose device.

For a further series, the system named is Sprague-Dawley (SD) rats. Briefly: Safety and toxicity of intranasal Midazolam via SipNose device. It is filed as in vivo, rat. The method, then:
Safety and possible adverse effects (toxicity) were assessed the safety and toxicity including adverse effects of Midazolam following intranasal administration via SipNose dedicated device to Sprague-Dawley (SD) rats.
A total of 78 SD rats (39 female and 39 male) were utilized. The animals were divided into four groups of 3 or 12 female rats and 3 or 12 male rats. At each of the times 6 hrs, 24 hrs, 7 days, and 14 days, three males and three females were sacrificed.
The test material was a commercially available injectable Midazolam.
The day of dosing was Day 1 and termination days were Day 1 (6 hrs), Day 2 (24 hrs), Day 8 and Day 15.
Each test material or vehicle dose was administrated to three female and three male rats at each of the above times. The administration was performed intranasally (IN) via a SipNose device. The dose volume was 25-125 μl per naris (50-250 μl total per rat). Dosing was performed in an escalating fashion, each increase in dose depending on the outcome of the previous dose. The time between increasing doses was approximately half an hour.
Dosing was performed in a staggered fashion, each increase in dose pending on the outcome of the previous dose. The lag time between the increasing doses was approximately half an hour. The maximum dose was five times the clinical dose in order to determine a maximum tolerated dose.
The test material and vehicle were administered IN once via a SipNose device at a dose volume of 50-250 μl to non-fasting animals.
Animals were observed individually at least once during the first 30 minutes alter dosing and daily thereafter, for a total of 1, 7, or 14 days (according to time of sacrifice for histological observation). All observations were systematically recorded and individual records were maintained for each animal.
Body weight was monitored one day after the animals' arrival, prior to administration of the test material and twice a week thereafter (days 4, 8, 10 and 15) for a total of 5 times.
Clinical signs were observed daily, at least once during the first 30 min after dosing, periodically during the first 24 h, with special attention during the first 4 h, and once daily thereafter.
Animals were sacrificed by carbon dioxide asphyxiation and gross pathology was performed examining the major tissue and organ systems. All animals were subjected to gross necropsy.
The tissue samples from groups 1, 2, 3 and 4 (M+F) were embedded, sectioned and mounted on slides. The tissue sections were stained with Hematoxylin & Eosin (H&E).
Three cross sections of the skull and brain were taken: (1) in the nose from rostral area, (2) behind the incisor teeth and (3) in the caudal area including the olfactory epithelium labyrinth (FIG. 85). The brain was dissected in the olfactory regions, hippocampus, cerebellum and brain stem. The lungs were evaluated in both right and left lobes. The inflammatory status in the tissue samples were evaluated using the following parameters.
• Grade 0: No inflammation • Grade 1: Mild (few inflammatory cells, 10-20 per ×40 high-power field) • Grade 2: moderate (more inflammatory cells, 20-50 per ×40 high-power field), • Grade 3: severe (many inflammatory cells, more than 50 per ×40 high-power field).

Take `Cc1ncc2n1-c1ccc(Cl)cc1C(c1ccccc1F)=NC2` [Midazolam]: the Racine seizure severity result in series [1] (0.6 mg/kg Midazolam nasally by SipNose, about t=10 min to t=60 min) is recorded as “zero, no seizures were seen”; in series [1] (6 mg/kg Midazolam IV) it was < 0.5; in series [1] (6 mg/kg Midazolam nasally by SipNose), < 0.5. In addition, the “Midazolam brain concentration at which Racine severity reaches zero” value in series [2] (IV administration) is listed as “about 130 ng/gm”. The “Midazolam brain concentration up to which Racine severity remained at about 1” value in series [2] (IV administration) is on record as “about 25 ng/gm”. Besides, the “Midazolam brain concentration needed to completely prevent seizures (score=0)” value in series [2] (SipNose administration) is listed as ~11 ng/gm. Moreover, the “time after administration at which brain activity (EEG) is back to normal” value in series [3] stood at 3 min. Also, the “death of neurons in the brain” value in the series on Sprague-Dawley (SD) rats (SD rats, Midazolam treated groups) was “No death of neurons was detected”. In the series on Sprague-Dawley (SD) rats (SD rats, both tested doses (clinical dose and five times clinical dose)), the “adverse effects or histopathological findings in examined tissues” value was “no adverse effects or histopathological findings; also recorded: no pathological abnormalities were found”. Further, the “very mild inflammation in most caudal cross section of the nose” value in the series on Sprague-Dawley (SD) rats (SD rats, seen in saline and Midazolam groups, 12 out of 42 animals) is given as “most probably not drug-related”. Besides, the clinical signs entry in the series on Sprague-Dawley (SD) rats (SD rats, single intranasal dose via SipNose, up to 14 days) is reported as “No abnormal clinical signs were detected”. Further, the “weight gain vs control group” value in the series on Sprague-Dawley (SD) rats (female rats, five times the clinical dose, days 10 and 15) is listed as “statistically significant greater weight gain”. Also, the “body weight increase vs control group” value in the series on Sprague-Dawley (SD) rats (male rats, clinical dose of Midazolam, at several times) is reported as “statistically significant greater increase in weight”.
